SMILES strings stand for the structures.

Here are results for eleven compounds from patent US8143408B2, “N-(8-heteroaryltetrahydronaphtalene-2yl) or N-(5-heteroarylchromane-3-yl) carboxamide derivatives for the treatment of pain” (AstraZeneca AB, priority 2007, dated 2012).

This assay deals with T1, Nav1.7 voltage-gated sodium channel (Homo sapiens, UniProt Q15858).
T1 construct: Gene(s) encoding the full-length protein of the voltage-gated sodium channel of interest are cloned and expressed; expressed in transfected cells
Nature of the assay: Whole-cell voltage clamp electrophysiology assay. The assay is classed as cell-based. As to conditions: cells stably expressing the voltage-gated sodium channel of interest. In short, it runs like this: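 Cells expressing full-length channel, exposed to drug by integrated pipetting on automated patch-clamp platforms or by microperfusion in conventional whole-cell patch clamp. Channels activated by a voltage protocol depolarising from a defined holding potential; buffers per platform manufacturer.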

T1 sequence (Q15858 whole entry): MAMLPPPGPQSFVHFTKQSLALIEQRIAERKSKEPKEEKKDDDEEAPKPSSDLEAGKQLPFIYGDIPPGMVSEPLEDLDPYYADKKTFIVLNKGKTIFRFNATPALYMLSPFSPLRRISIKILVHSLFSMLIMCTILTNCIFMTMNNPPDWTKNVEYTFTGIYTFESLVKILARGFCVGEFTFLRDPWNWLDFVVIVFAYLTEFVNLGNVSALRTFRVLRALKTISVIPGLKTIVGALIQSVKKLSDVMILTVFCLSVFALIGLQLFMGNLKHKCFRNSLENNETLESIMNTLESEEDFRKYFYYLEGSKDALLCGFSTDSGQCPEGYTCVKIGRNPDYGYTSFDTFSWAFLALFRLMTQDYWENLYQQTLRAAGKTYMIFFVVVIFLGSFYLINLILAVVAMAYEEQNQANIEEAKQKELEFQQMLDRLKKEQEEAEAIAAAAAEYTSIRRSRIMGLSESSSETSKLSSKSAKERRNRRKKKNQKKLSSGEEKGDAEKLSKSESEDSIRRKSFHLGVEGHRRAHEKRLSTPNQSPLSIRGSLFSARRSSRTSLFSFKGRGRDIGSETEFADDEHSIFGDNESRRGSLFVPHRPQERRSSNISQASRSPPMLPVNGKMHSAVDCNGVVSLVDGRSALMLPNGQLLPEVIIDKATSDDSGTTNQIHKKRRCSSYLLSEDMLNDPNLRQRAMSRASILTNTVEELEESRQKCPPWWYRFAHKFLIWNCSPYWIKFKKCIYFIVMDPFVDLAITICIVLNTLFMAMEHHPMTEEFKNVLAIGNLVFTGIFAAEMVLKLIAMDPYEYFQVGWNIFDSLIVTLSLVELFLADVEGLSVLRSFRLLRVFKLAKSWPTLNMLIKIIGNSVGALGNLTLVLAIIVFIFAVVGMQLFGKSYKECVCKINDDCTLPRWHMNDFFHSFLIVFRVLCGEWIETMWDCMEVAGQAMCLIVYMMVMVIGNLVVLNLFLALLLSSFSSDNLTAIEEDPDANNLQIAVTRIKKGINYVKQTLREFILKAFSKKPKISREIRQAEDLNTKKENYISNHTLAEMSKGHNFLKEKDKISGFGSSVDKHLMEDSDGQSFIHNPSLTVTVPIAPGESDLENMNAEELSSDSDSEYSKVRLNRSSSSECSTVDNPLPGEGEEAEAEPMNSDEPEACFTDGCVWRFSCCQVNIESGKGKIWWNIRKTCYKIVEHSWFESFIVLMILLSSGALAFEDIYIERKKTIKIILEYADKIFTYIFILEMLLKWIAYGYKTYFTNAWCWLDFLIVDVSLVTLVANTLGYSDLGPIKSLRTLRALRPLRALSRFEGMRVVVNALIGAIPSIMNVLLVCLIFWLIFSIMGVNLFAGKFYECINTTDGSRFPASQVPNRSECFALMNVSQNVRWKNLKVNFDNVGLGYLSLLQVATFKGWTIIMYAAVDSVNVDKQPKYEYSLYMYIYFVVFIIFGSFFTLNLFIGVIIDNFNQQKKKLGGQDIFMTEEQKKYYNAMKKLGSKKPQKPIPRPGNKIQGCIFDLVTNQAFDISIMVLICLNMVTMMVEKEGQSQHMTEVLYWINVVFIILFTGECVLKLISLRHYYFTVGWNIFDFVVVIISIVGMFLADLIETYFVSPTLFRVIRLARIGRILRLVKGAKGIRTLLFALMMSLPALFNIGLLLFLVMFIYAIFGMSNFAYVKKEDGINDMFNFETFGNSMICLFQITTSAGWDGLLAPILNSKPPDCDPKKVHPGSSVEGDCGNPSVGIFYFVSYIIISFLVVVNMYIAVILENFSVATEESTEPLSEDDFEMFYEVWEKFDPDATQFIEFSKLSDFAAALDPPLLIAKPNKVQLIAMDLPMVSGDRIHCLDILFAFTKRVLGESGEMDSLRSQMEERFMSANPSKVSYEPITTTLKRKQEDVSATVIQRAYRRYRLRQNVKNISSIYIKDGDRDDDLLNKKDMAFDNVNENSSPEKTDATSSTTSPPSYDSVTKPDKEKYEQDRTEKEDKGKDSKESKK

On to `CN(CC(F)(F)F)C(=O)c1ccc(C(=O)N[C@@H]2COc3cccc(-c4cnc(C5CC5)nc4)c3C2)cn1` [Example 196, N^5-[(3S)-5-(2-cyclopropylpyrimidin-5-yl)-3,4-dihydro-2H-chromen-3-yl]-N^2-methyl-N^2-(2,2,2-trifluoroethyl)pyridine-2,5-dicarboxamide], for which the midpoint of inhibition, the IC50, lay at 501 nM. On to `O=C(N[C@@H]1COc2cccc(-c3cnc(C4CC4)nc3)c2C1)c1ccc(C(=O)NCCC(F)(F)F)nc1` [Example 197, N^5-[(3S)-5-(2-cyclopropylpyrimidin-5-yl)-3,4-dihydro-2H-chromen-3-yl]-N^2-(3,3,3-trifluoropropyl)pyridine-2,5-dicarboxamide], for which half-maximal inhibition (IC50) required 158 nM. Then `CN(CCC(F)(F)F)C(=O)c1ccc(C(=O)N[C@@H]2COc3cccc(-c4cnc(C5CC5)nc4)c3C2)cn1` [Example 198, N^5-[(3S)-5-(2-cyclopropylpyrimidin-5-yl)-3,4-dihydro-2H-chromen-3-yl]-N^2-methyl-N^2-(3,3,3-trifluoropropyl)pyridine-2,5-dicarboxamide], with 501 nM. Then `O=C(N[C@@H]1COc2cccc(-c3cnc(C4CC4)nc3)c2C1)c1ccn(CCC(F)(F)F)c(=O)c1` [Example 199, N-[(3S)-5-(2-cyclopropylpyrimidin-5-yl)-3,4-dihydro-2H-chromen-3-yl]-2-oxo-1-(3,3,3-trifluoropropyl)-1,2-dihydropyridine-4-carboxamide], with 501 nM; and `COc1ncc(-c2cccc3c2C[C@H](NC(=O)c2cnc(NCCC(F)(F)F)nc2)CO3)cc1F` [Example 200, N-[(3S)-5-(5-fluoro-6-methoxypyridin-3-yl)-3,4-dihydro-2H-chromen-3-yl]-2-[(3,3,3-trifluoropropyl)amino]pyrimidine-5-carboxamide], with 316 nM.

In the case of `Cc1ncc(-c2cccc3c2C[C@H](NC(=O)c2cnc(NCCC(F)(F)F)nc2)CO3)cn1` [Example 201, N-[(3S)-5-(2-methylpyrimidin-5-yl)-3,4-dihydro-2H-chromen-3-yl]-2-[(3,3,3-trifluoropropyl)amino]pyrimidine-5-carboxamide], the IC50 (usually the concentration that inhibits the measured activity by half) is 398 nM. Compound `Cc1cnc(-c2cccc3c2C[C@H](NC(=O)c2ccc(OCCOCC(F)(F)F)nc2)CO3)c(C)n1` [Example 202, N-[(3S)-5-(3,5-dimethylpyrazin-2-yl)-3,4-dihydro-2H-chromen-3-yl]-6-[2-(2,2,2-trifluoroethoxy)ethoxy]nicotinamide] gave an IC50 of 794 nM. Then `Cc1ncc(-c2cccc3c2C[C@H](NC(=O)c2ccc(COCC(F)(F)F)nc2)CO3)cn1` [Example 203, N-[(3S)-5-(2-methylpyrimidin-5-yl)-3,4-dihydro-2H-chromen-3-yl]-6-[(2,2,2-trifluoroethoxy)methyl]nicotinamide], with 200 nM; and `COc1ncc(-c2cccc3c2C[C@H](NC(=O)c2ccc(OC4CCOCC4)nc2)CO3)cc1C(=O)N(C)C` [Example 204, 2-methoxy-N,N-dimethyl-5-[(3S)-3-({[6-(tetrahydro-2H-pyran-4-yloxy)pyridin-3-yl]carbonyl}amino)-3,4-dihydro-2H-chromen-5-yl]nicotinamide], with 7940 nM.

As to `CNC(=O)c1cc(-c2cccc3c2C[C@H](NC(=O)c2ccc(OC(C)C)nc2)CO3)cnc1OC` [Example 205, 5-[(3S)-3-{[(6-isopropoxypyridin-3-yl)carbonyl]amino}-3,4-dihydro-2H-chromen-5-yl]-2-methoxy-N-methylnicotinamide], half-maximal inhibition (IC50) was put at 1260 nM. Then `CNC(=O)c1cc(-c2cccc3c2C[C@H](NC(=O)c2ccc(OC4CCOCC4)nc2)CO3)cnc1OC` [Example 206, 2-methoxy-N-methyl-5-[(3S)-3-({[6-(tetrahydro-2H-pyran-4-yloxy)pyridin-3-yl]carbonyl}amino)-3,4-dihydro-2H-chromen-5-yl]nicotinamide], with 3160 nM.
